Tests used:
[1] = test system: IL-2; test: TH1 cytokines: PBMC, PHA, IL-2; assay type: cell-based; settings: 24 h, read-out: IL-2 (anti-inflammatory data, TH1 cytokine)
Protocol: (§1) Anti-inflammatory data for 3-hydroxypyridine-2-carbonyloxy-bis(3-chloro-4-methylphenyl)-borane
(§2) TH1 cytokines: PBMC, PHA@ […], 24 h

[2] = test system: IL-1β; test: Pro-inflammatory cytokines: THP-1 cells, LPS, IL-1β; assay type: cell-based; settings: Homo sapiens, 24 hr, read-out: IL-1β (anti-inflammatory data, pro-inflammatory cytokine)
Protocol: as §1
(§3) Pro-inflammatory cytokines: THP-1 cells, LPS@ […], 24 hr

[3] = test system: IL-8; test: Pro-inflammatory cytokines: THP-1 cells, LPS, IL-8; assay type: cell-based; settings: Homo sapiens, 24 hr, read-out: IL-8 (anti-inflammatory data, pro-inflammatory cytokine)
Protocol: as §1, §3

[4] = test system: IL-5; test: TH2 cytokines: PBMC, PHA, IL-5; assay type: cell-based; settings: 24 h, read-out: IL-5 (anti-inflammatory data, TH2 cytokine)
Protocol: as §1
(§4) TH2 cytokines: PBMC, PHA@ […], 24 h

[5] = test system: IFN-g; test: TH1 cytokines: PBMC, PHA, IFN-g; assay type: cell-based; settings: 24 h, read-out: IFN-g (anti-inflammatory data, TH1 cytokine)
Protocol: as §1, §2

[6] = test system: TNF-α; test: Pro-inflammatory cytokines: THP-1 cells, LPS, TNF-α; assay type: cell-based; settings: Homo sapiens, 24 hr, read-out: TNF-α (anti-inflammatory data, pro-inflammatory cytokine)
Protocol: as §1, §3

[7] = test system: IL-3; test: Regulatory cytokine: PBMC, PHA, IL-3; assay type: cell-based; settings: 24 h, read-out: IL-3 (anti-inflammatory data, regulatory cytokine)
Protocol: as §1
Regulatory cytokine: PBMC, PHA@ […], 24 h

[8] = test system: IL-13; test: TH2 cytokines: PBMC, PHA, IL-13; assay type: cell-based; settings: 24 h, read-out: IL-13 (anti-inflammatory data, TH2 cytokine)
Protocol: as §1, §4

[9] = test system: IL-6; test: Pro-inflammatory cytokines: THP-1 cells, LPS, IL-6; assay type: cell-based; settings: Homo sapiens, 24 hr, read-out: IL-6 (anti-inflammatory data, pro-inflammatory cytokine)
Protocol: as §1, §3

[10] = test system: IL-4; test: TH2 cytokines: PBMC, PHA, IL-4; assay type: cell-based; settings: 24 h, read-out: IL-4 (anti-inflammatory data, TH2 cytokine)
Protocol: as §1, §4

[11] = test system: IL-10; test: TH2 cytokines: PBMC, PHA, IL-10; assay type: cell-based; settings: 24 h, read-out: IL-10 (anti-inflammatory data, TH2 cytokine)
Protocol: as §1, §4

| SMILES | melting point | further results |
| --- | --- | --- |
| Cc1ccc(B(OC(=O)c2ncccc2O)c2ccc(C)c(Cl)c2)cc1Cl [3-hydroxypyridine-2-carbonyloxy-bis(3-chloro-4-methylphenyl)-borane] | – | IC50 [1]: > 25 µM; IC50 [2]: 1 µM; IC50 [3]: 9.6 µM; IC50 [4]: 9.3 µM; IC50 [5]: > 25 µM; IC50 [6]: 2.7 µM; IC50 [7]: > 10 µM; IC50 [8]: > 10 µM; IC50 [9]: 5.3 µM; IC50 [10]: > 25 µM; IC50 [11]: 14.5 µM |
| Fc1ccc2c(c1)COB2c1ccsc1 [compound 13, 1,3-Dihydro-5-fluoro-1-(thiophen-3-yl)-2,1-benzoxaborole] | 33 to 35 °C | – |
| Cc1cscc1B1OCc2cc(F)ccc21 [compound 14, 1,3-Dihydro-5-fluoro-1-(4-methylthiophen-3-yl)-2,1-benzoxaborole] | 51 to 53 °C | – |
| Fc1ccc2c(c1)COB2c1cccnc1 [compound 15, 3-(1,3-Dihydro-5-fluoro-2,1-benzoxaborol-1-yl)pyridine] | 210 to 212 °C | – |

The next lines start with results.

| melting point | SMILES | further results |
| --- | --- | --- |
| 157 to 161 °C | OB1OCc2ccc(Sc3ccc(Cl)cc3)cc21 [C88, 6-(4-chlorophenylthio)benzo[c][1,2]oxaborol-1(3H)-ol] | – |
| 154 to 161 °C | [O-][S+](c1ccc(Cl)cc1)c1ccc2c(c1)B(O)OC2 (centres unmarked) [C89, 6-(4-chlorophenylsulfinyl)benzo[c][1,2]oxaborol-1(3H)-ol] | – |
| 157 to 163 °C | O=S(=O)(c1ccc(Cl)cc1)c1ccc2c(c1)B(O)OC2 [C90, 6-(4-chlorophenylsulfonyl)benzo[c][1,2]oxaborol-1(3H)-ol] | – |
| 142 to 152 °C | O=S(=O)(c1ccccc1)N(c1ccc2c(c1)COB2O)S(=O)(=O)c1ccccc1 [C91, N-(1-hydroxy-1,3-dihydrobenzo[c][1,2]oxaborol-5-yl)-N-(phenylsulfonyl)benzenesulfonamide] | – |
| 111 to 113 °C | OB1OCc2ccc(Sc3ccc(C(F)(F)F)cc3)cc21 [C92, 6-(4-(trifluoromethyl)phenylthio)benzo[c][1,2]oxaborol-1(3H)-ol] | – |
| 79 to 88 °C | [O-][S+](c1ccc(C(F)(F)F)cc1)c1ccc2c(c1)B(O)OC2 (centres unmarked) [C93, 6-(4-(trifluoromethyl)phenylsulfinyl)benzo[c][1,2]oxaborol-1(3H)-ol] | – |
| 117 to 120 °C | CSc1ccc(Sc2ccc3c(c2)B(O)OC3)cc1 [C94, 6-(4-(methylthio)phenylthio)benzo[c][1,2]oxaborol-1(3H)-ol] | – |
| 139 to 144 °C | Cc1ccc(Sc2ccc3c(c2)B(O)OC3)cc1 [C95, 6-(p-tolylthio)benzo[c][1,2]oxaborol-1(3H)-ol] | – |
| 147 to 150 °C | N#Cc1cccc(COc2ccc3c(c2)COB3O)c1 [C96, 3-((1-hydroxy-1,3-dihydrobenzo[c][1,2]oxaborol-5-yloxy)methyl)benzonitrile] | – |

— patent US20070286822A1, “Compounds for the Treatment of Periodontal Disease” (ANACOR PHARMACEUTICALS INC., priority 2006, published 2007)
